Here are results for ten compounds from patent US20250115926A1, “DEREGULATED DHS AND TYRA ENZYMES OF GRASSES ENABLE EFFICIENT PRODUCTION OF BOTH TYROSINE AND PHENYLALANINE” (Wisconsin Alumni Research Foundation, priority 2023, published 2025).

Assay [1] concerns the target Brachypodium distachyon BdDHS1a, SEQ ID NO: 1, recombinant (Brachypodium distachyon, UniProt I1GSB3). As to the kind of experiment: DHS activity: kinetics and effector inhibition. The text has this:
(§1) To examine their functional properties, the recombinant DHS enzymes of Brachypodium were produced and characterized in vitro.
(§2) As recent studies have shown that plant DHS enzymes are feedback-inhibited by multiple effector molecules^15, 16, we tested the effect of AAAs and another 14 related metabolites, including various intermediates of the shikimate pathway and the pathways downstream of AAAs, on Brachypodium DHS enzymes.
(§3) The DHS assay for UHPLC-MS quantification was set up using the same settings as described in the previous paragraph for the UV-based DHS assay, which guaranteed at least 10 minutes of reaction linearity. After a 10-minute incubation, 20 μL of the reactions (out of a total volume of 50 μL) were mixed into 80 μL of methanol, vortexed and transferred to vials for injection. Analysis of DAHP by UHPLC-MS was conducted using the same chromatographic settings as described for the UHPLC-MS analysis of soluble metabolites and compared with an authentic DAHP standard (Sta. Cruz biotechnology, cat. no. sc-216432).

For assay [2], the target named is Brachypodium distachyon BdDHS1b, SEQ ID NO: 3, recombinant (Brachypodium distachyon, UniProt I1H4W3). Put plainly: DHS activity: kinetics and effector inhibition. The assay is classed as biochemical.
Text: as §1, §2, §3

The target in assay [3] is Brachypodium distachyon BdDHS2, SEQ ID NO: 5, recombinant (Brachypodium distachyon, UniProt I1I809). As to the kind of experiment: DHS activity: kinetics and effector inhibition. The assay is classed as biochemical.
Text: as §1, §2, §3

The next assay relates to grass DHS enzymes. As to the kind of experiment: DHS activity: effector inhibition. Conditions: 0.5 mM (FIGS. 4, 15, 17). The class given is biochemical. How it is done: as §2, §3
In assay [4] the test system is recombinant Sorghum DHS enzymes. As to the kind of experiment: DHS activity: effector inhibition. The assay is classed as biochemical, Sorghum bicolor. Conditions: 0.5 mM (FIG. 17). How it is done: (§4) In contrast, BdDHS1b was not inhibited by arogenate even up to 2.5 mM. In fact, DHS1b activity increased in the presence of high concentrations of arogenate (FIG. 4F), likely due to high concentrations of contaminant NaCl present in the arogenate preparation (FIG. 16). Under acidic conditions, arogenate is known to undergo a spontaneous dehydration and decarboxylation into […]. […] Like in Brachypodium DHS enzymes, 0.5 mM arogenate inhibited SbDHS1a and SbDHS2 at ˜50% and ˜40%, respectively, but had no effect on SbDHS1b.

Assay [5] has as its target T1, Sorghum bicolor SbDHS2, SEQ ID NO: 13, recombinant (Sorghum bicolor, UniProt C5YJQ4).
T1 construct: pET28a (NdeI/BamHI), E. coli KRX
Put plainly: DHS activity: effector inhibition. The class given is biochemical. Conditions: effector 0.5 mM. How it is done:
as §4

Assay [6] concerns the target T2, Sorghum bicolor SbDHSnc, SEQ ID NO: 15, recombinant (Sorghum bicolor, UniProt C5WRG8).
T2 construct: synthesized into pET28a, E. coli KRX
Put plainly: DHS activity: effector inhibition. The class given is biochemical. Conditions: effector 0.5 mM. How it is done:
as §4

A short description of assay [7]: DHS activity with combinations of effectors. The assay is classed as biochemical. Conditions: 0.15 mM each effector (FIG. 19). How it is done:
DHS effector molecules can have synergistic effects when combined in vitro^51. To explore this possibility, we tested the impact of different combinations of tryptophan, tyrosine, arogenate and chorismate, at 0.15 mM each, on the activity of Brachypodium DHS enzymes.

For assay [8], the system named is Nicotiana benthamiana leaves. Put plainly: Transient expression of Brachypodium DHS in Nicotiana benthamiana leaves (AtRbcS3B promoter), UHPLC-MS. The assay is classed as in vivo. Conditions: three days after transient expression. The procedure:
Agrobacterium tumefaciens strain GV3101 transformed with the plant expression constructs were grown at 28° C. for 24 to 36 hours in 10 mL of LB liquid media containing the corresponding antibiotics. The saturated cultures were spun down at 3,000 g for 5 minutes at room temperature and washed twice with 3 mL of induction media (IM; 10 mM MES [2-(N-morpholino) ethanesulfonic acid] buffer pH 5.6, 0.5% glucose, 2 mM NaH2PO4, 20 mM NH4Cl, 1 mM MgSO4, 2 mM KCl, 0.1 mM CaCl2), 0.01 mM FeSO4, and 0.2 mM acetosyringone). After washing, bacteria cultures were incubated in IM for 2 to 3 hours at room temperature in the dark, pelleted at 3000 g for 5 minutes, and resuspended into 3 mL of 10 mM MES buffer pH 5.6 with 0.2 mM acetosyringone. OD600nm was adjusted to a final density of 0.25 units for pAGM4673::TyrA (FIG. 3F) and pICH47822::DHS (FIG. 5A) infiltration, or 0.5 units for pAGM4673::TyrA-DHS co-expression constructs (FIG. 5B) using 10 mM MES buffer pH 5.6 with 0.2 mM acetosyringone. For infiltration of pICH47822::DHS constructs, the Agrobacterium suspensions were adjusted to OD600nm=0.5 and mixed with an equal volume of a suspension of an Agrobacterium clone transformed with pICH4780::p19 under control of the Arabidopsis ubiquitin ligase promoter adjusted to OD600nm=0.5, resulting in a final mixture of 0.25 OD600nm units for each construct. […] Nicotiana benthamiana plants of around 4-weeks-old were infiltrated close to the end of the light period into four different spots per plant, distributed into two leaves at two infiltrations per leaf, with each individual spot corresponding with a different construct/treatment. In total, each construct was infiltrated as 5 or 6 independent replicates into different plants following a randomized pattern. Samples consisting of the infiltrated leaf limbs, without the main veins, were harvested at ˜72 hours post infiltration and subjected to HPLC or UHPLC-MS analysis (see details below).
Around 30-40 mg of pulverized frozen plant tissue were resuspended into 400 μL of chloroform:methanol (1:2) for ˜1 hour with regular vortexing, followed by centrifugation at 20,000 g for 5 minutes at room temperature. The whole supernatant was transferred to a fresh tube, mixed with 125 μL of chloroform, 300 μL of water, and spun down at 15,000 g for 5 minutes for phase separation. The upper, aqueous phase was recovered and dried down for 4 hours to overnight in a speed-vac at 40° C. The dried pellets were resuspended into 100 μL of methanol 80%, spun down at 20,000 g for 5 minutes, and the supernatant transferred to vials for injection. All reagents used for the extraction were UHPLC-MS grade.
Aromatic amino acids and shikimate were detected using a Vanquish Horizon Binary UHPLC (Thermo Scientific) coupled to a Q Exactive mass spectrometer (Thermo Scientific). Two microliters of the sample were analyzed using a InfinityLab Poroshell 120 HILIC-Z column (150×2.1 mm, 2.7-μm particle size; Agilent) in a gradient of 5 mM ammonium acetate/0.2% acetic acid buffer in water (solvent A) and 5 mM ammonium acetate/0.2% acetic acid buffer in 95% acetonitrile (solvent B) at a flow rate of 0.45 mL/min and column temperature of 40° C. The phase B gradient was: 0-2 min, 94%; 2-9 min, 94-88%; 9-19 min, 88-71%; 19-20 min, 71-20%, 20-21.5 min, 20%; 21.5-22 min, 20-94%; 22-25 min, 94%. All chemicals used to prepare the mobile phases were LC-MS grade. Full MS spectra were recorded between 2 and 19 minutes using full scan in negative mode, under the following parameters: sheath gas flow rate, 55; auxiliary gas flow rate, 20; sweep gas flow rate, 2; spray voltage, 3 kV; capillary temperature, 400° C.; S-lens RF level, 50; resolution, 70,000; AGC target 3×10^6, maximum scan time 100 ms; scan range 70-1050 m/z. Spectral data were integrated manually using Xcalibur 3.0. For ^13C labeled plant samples, ^13C-isotopologues were detected based on a mass increase of 1.00335 atomic mass units for each ^13C atom. […]

Assay [9] in a line: DHS inhibition by arogenate. The assay is classed as biochemical. Conditions: FIG. 18. How it is done:
as §3

The nature of assay [10]: DHS inhibition by tryptophan. The assay is classed as biochemical. Conditions: FIG. 18. The procedure:
as §3

Assay [11] deals with Nicotiana benthamiana leaves. As to the kind of experiment: Transient expression of DHS1b orthologs in Nicotiana benthamiana leaves, LCMS (FIG. 21). The assay is classed as in vivo. Conditions: 72 hours post-infiltration; for effect on levels of aromatic amino acids and their precursor molecules: vs YPet. The text has this:
To determine whether the grass DHS1b gene encodes a deregulated DHS in other grass species besides Brachypodium distachyon, BdDHS1b orthologs from Oryza sativa (OsDHS1b) and Sorghum bicolor (SbDHS1b) were cloned into the Golden Gate plant expression vector pICH47822 under control of the RuBisCO small subunit 3B promoter from Arabidopsis thaliana.^52 A 3× human influenza hemagglutinin tag was fused in frame to the C-terminus of the DHS genes to confirm the production of heterologous DHS protein.
Agrobacterium tumefaciens (strain GV3101) clones transformed with the OsDHS1b and SbDHS1b plant expression constructs were infiltrated into the leaves of Nicotiana benthamiana side-by-side with Agrobacterium clones expressing BdDHS1a, BdDHS1b, and the fluorescent protein YPet (negative control). The levels of phenylalanine, tyrosine, tryptophan, and three of their biosynthetic intermediates (shikimate, prephenate, and arogenate) were determined at 72 hours post-infiltration by liquid chromatography coupled to mass spectrometry (LCMS). […] On average, expression of BdDHS1b or OsDHS1b increased phenylalanine, tyrosine, and shikimate levels by 5 to 20-times compared to the YPet negative control (FIG. 21), whereas prephenate and arogenate rose to ˜100-times the control (FIG. 21). […] Based on these findings, BdDHS1b and OsDHS1b, but not SbDHS1b, encode DHS enzymes that can boost the accumulation of aromatic amino acids in planta upon heterologous expression.

A value given as a limit tells only on which side of the number the result lay.

Brachypodium distachyon BdDHS1a, SEQ ID NO: 1, recombinant, sequence (I1GSB3 46-537): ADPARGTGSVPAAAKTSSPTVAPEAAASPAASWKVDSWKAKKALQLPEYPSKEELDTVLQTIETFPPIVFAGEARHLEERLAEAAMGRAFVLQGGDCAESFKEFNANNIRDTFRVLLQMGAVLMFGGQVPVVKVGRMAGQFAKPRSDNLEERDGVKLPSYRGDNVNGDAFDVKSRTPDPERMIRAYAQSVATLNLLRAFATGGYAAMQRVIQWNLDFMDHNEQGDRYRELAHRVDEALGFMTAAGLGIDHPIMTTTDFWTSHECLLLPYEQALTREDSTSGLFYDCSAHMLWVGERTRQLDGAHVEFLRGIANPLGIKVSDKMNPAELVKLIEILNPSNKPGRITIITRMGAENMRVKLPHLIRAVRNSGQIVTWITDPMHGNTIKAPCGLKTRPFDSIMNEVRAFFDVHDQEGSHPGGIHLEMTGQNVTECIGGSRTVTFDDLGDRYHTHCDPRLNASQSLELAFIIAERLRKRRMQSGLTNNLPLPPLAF
Brachypodium distachyon BdDHS2, SEQ ID NO: 5, recombinant, sequence (I1I809 31-503): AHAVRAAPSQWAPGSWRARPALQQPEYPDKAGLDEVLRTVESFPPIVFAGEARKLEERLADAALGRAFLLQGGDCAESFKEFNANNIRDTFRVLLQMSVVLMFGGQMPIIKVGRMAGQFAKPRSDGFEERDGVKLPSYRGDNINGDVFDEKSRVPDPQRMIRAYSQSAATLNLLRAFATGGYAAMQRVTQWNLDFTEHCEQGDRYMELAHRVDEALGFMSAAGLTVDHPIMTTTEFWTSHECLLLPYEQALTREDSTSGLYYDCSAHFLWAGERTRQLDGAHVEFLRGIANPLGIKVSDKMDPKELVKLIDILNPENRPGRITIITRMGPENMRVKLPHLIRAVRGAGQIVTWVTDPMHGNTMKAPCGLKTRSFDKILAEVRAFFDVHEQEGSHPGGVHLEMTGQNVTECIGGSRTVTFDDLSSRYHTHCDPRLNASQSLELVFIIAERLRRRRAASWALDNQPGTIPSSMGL
Brachypodium distachyon BdDHS1b, SEQ ID NO: 3, recombinant, sequence (I1H4W3 37-542): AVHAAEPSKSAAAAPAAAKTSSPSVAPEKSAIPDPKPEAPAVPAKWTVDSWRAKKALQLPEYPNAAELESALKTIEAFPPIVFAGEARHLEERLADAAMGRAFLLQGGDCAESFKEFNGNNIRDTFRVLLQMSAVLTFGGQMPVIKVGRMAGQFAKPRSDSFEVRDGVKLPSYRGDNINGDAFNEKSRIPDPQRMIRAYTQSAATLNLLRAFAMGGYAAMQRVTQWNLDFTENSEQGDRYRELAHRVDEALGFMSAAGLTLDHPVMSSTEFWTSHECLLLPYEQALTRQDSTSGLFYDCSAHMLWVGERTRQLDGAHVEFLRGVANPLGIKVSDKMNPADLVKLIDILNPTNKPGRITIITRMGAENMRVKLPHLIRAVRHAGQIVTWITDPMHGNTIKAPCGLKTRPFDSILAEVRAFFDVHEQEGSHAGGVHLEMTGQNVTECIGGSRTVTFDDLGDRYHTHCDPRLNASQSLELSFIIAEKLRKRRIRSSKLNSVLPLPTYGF
T2 sequence (C5WRG8 36-499): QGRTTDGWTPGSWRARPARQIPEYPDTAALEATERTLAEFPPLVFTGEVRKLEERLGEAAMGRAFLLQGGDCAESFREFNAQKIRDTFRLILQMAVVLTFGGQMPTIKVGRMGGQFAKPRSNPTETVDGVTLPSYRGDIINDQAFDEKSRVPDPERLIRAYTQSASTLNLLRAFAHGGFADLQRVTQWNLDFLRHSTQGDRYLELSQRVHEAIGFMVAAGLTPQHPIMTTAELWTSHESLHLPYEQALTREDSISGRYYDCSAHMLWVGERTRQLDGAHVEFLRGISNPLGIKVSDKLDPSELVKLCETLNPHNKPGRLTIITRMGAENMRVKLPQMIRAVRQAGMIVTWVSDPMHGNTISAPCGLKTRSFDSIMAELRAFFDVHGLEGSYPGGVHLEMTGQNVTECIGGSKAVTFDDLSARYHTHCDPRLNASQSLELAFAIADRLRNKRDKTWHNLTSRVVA
T1 sequence (C5YJQ4 42-508): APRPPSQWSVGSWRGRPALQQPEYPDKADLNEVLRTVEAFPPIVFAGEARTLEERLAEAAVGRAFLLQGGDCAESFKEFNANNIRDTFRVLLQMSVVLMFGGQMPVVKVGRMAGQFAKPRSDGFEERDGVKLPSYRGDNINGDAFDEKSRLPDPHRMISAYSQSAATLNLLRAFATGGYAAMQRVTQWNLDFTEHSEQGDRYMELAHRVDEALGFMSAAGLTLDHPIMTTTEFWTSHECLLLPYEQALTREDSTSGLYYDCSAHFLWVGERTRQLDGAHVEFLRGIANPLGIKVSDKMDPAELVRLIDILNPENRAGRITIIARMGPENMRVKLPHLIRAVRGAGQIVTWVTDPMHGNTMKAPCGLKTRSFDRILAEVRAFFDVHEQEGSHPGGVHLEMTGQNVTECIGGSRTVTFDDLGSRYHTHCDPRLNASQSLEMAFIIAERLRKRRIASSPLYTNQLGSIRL

Consider `O=C[C@H](O)[C@H](O)COP(=O)(O)O` [E4P, erythrose 4-phosphate], for which the “H Coefficient (only E4P)” value in assay [1] (1.5 mM PEP) amounted to 1.8; in assay [2] (1.5 mM PEP) it was 2.1; in [3] (1.5 mM PEP), 1.5. In assay [2], the “kcat/EC50 (E4P)” value came to 28300 M⁻¹ s⁻¹. Besides, the Km in assay [2] (1.5 mM PEP, 37° C., read-out: EC50 (E4P) (K0.5)) is 400 µM.
For the compound `O=C(O)/C=C/c1ccc(O)c(O)c1` [caffeic acid], the “effect on grass DHS at 0.5 mM” value in the assay with grass DHS enzymes is “little effect”.
Same read-out and setting: to `C=C(O[C@@H]1C=C(C(=O)O)C=C[C@H]1O)C(=O)O` [chorismate] belongs “little effect”; to `O=C(O)Cc1cc(O)ccc1O` [homogentisic acid], “little effect”.
As usually defined, the inhibition is the percentage by which the read-out fell short of the control. Take `N[C@@H](Cc1ccccc1)C(=O)O` [phenylalanine]: in [4], the “inhibition at 0.5 mM” value is “no strong inhibition”. Also, the “effect on grass DHS at 0.5 mM” value in the assay with grass DHS enzymes is given as “did not cause significant effects”.
The term IC50 denotes the point on the concentration scale where inhibition reaches its midpoint. As for `N[C@@H](Cc1c[nH]c2ccccc12)C(=O)O` [tryptophan], the effect of tryptophan result in [1] (0.5 mM (FIG. 4C)) and in assay [2] (0.5 mM (FIG. 4C)) was “no effect” each time. Further, the IC50 in assay [1] (IC50 (tryptophan), 1.5 mM PEP, 2 mM E4P) was > 500 µM; in assay [2] (read-out: IC50 (tryptophan)) it was > 500 µM; in assay [3] (1.5 mM PEP, 2 mM E4P, read-out: IC50 (tryptophan)) it was 120 µM. Besides, the “mode of inhibition with respect to E4P” value in assay [3] (FIG. 18) is “uncompetitive inhibition kinetics”. In assay [3] (FIG. 18), the “mode of inhibition with respect to PEP” value is listed as “non-competitive inhibition”. Besides, the inhibition at 500 µM in assay [5] and in [6] was 40 to 50% each time.
Regarding “BdDHS1a: DHS1a enzyme of Brachypodium distachyon, SEQ ID NO: 1”, in assay [7], the “impact of effector combinations on DHS activity” value was “additional inhibition”. Further, in [8], the “phenylalanine accumulation compared to tdTomato control” value is listed as “did not significantly alter”, the “shikimate accumulation compared to tdTomato control” value is “did not significantly alter”, the “tryptophan accumulation compared to tdTomato control” value is listed as “did not significantly alter” and the “tyrosine accumulation compared to tdTomato control” value is reported as “did not significantly alter”.
On to “BdDHS2: DHS2 enzyme of Brachypodium distachyon, SEQ ID NO: 5”, for which, in assay [9], the “inhibition mechanism of arogenate for PEP” value is on record as “mixed inhibition” and the “inhibition mechanism of arogenate in respect to E4P” value is given as “uncompetitive inhibition”. Also, the “inhibition mechanism of tryptophan in respect to E4P” value in assay [10] is given as “uncompetitive inhibition”. Besides, the “impact of effector combinations on DHS activity” value in assay [7] is “additional inhibition”. In addition, in assay [8], the “phenylalanine accumulation compared to tdTomato control” value is recorded as “did not significantly alter”, the “shikimate accumulation compared to tdTomato control” value is “did not significantly alter”, the “tryptophan accumulation compared to tdTomato control” value is listed as “did not significantly alter” and the “tyrosine accumulation compared to tdTomato control” value was “did not significantly alter”.
Turning to “OsDHS1b: DHS1b enzyme of Oryza sativa, SEQ ID NO: 19”, in assay [11], the “prephenate and arogenate relative to the control” value is ~100 times; the “effect on levels of aromatic amino acids and their precursor molecules” value is reported as “increased levels of all measured metabolites except for tryptophan”.
With “SbDHS1b: DHS1b enzyme of Sorghum bicolor, SEQ ID NO: 11”, the “effect on levels of aromatic amino acids and their precursor molecules” value in [11] was “little or no significant effect”.
